How the values were obtained:
Format in all cases: in vivo
Boophilus microplus = Boophilus microplus injection test; details: Rhipicephalus microplus, 168 h; 20 μg/animal injected into the abdomen; adult engorged female ticks; egg deposition after 7 days; read-out: efficacy (infertile eggs)
Experimental: Boophilus Microplus—Injection Test Solvent: dimethyl sulfoxide To produce a suitable preparation of active compound, 10 mg of active compound are dissolved in 0.5 ml solvent, and the concentrate is diluted with solvent to the desired concentration. Five adult engorged female ticks (Boophilus microplus) are injected with 1 μl compound solution into the abdomen. The ticks are transferred into replica plates and incubated in a climate chamber. After 7 days egg deposition of fertile eggs is monitored. Eggs where fertility is not visible are stored in a climate chamber till hatching after about 42 days. An efficacy of 100% means all eggs are infertile; 0% means all eggs are fertile.

Spodoptera frugiperda = Spodoptera frugiperda spray test; details: 168 h, after 7 days, larvae on maize leaf sections
Experimental: Spodoptera frugiperda—Spray Test
(§1) To produce a suitable preparation of active compound, 1 part by weight of active compound is mixed with the stated amount of solvents and is diluted with water, containing an emulsifier concentration of 1000 ppm, to the desired concentration. Further test concentrations are prepared by dilution with emulsifier containing water.
Maize (Zea mays) leaf sections are sprayed with a preparation of the active ingredient of the desired concentration. Once dry, the leaf sections are infested with fall armyworm larvae (Spodoptera frugiperda).
After 7 days mortality in % is determined. 100% means all caterpillars have been killed and 0% means none of the caterpillars have been killed.

Diabrotica balteata = Diabrotica balteata spray test; details: Diabrotica balteata, in Triticum aestivum, 168 h, after 7 days, larvae on wheat seeds, read-out: efficacy (seedlings grown up); for pest or weed control at 80 µg/disc, 250 g/ha: 80 μg/well (=250 g/ha); for pest or weed control at 160 µg/disc, 500 g/ha: 160 μg/well (=500 g/ha)
Experimental: Diabrotica balteata—Spray Test [table] To produce a suitable preparation of active compound, 1 part by weight of active compound is mixed with the stated amount of solvent, and the concentrate is diluted with water, containing an emulsifier concentration of 1000 ppm, to the desired concentration. Further test concentrations are prepared by dilution with emulsifier containing water. Soaked wheat seeds (Triticum aestivum) are placed in a multiple well plate filled with agar and some water and are incubated for 1 day to germinate (5 seeds per well). The germinated wheat seeds are sprayed with a test solution containing the desired concentration of the active ingredient. Afterwards each unit is infected with 10-20 larvae of the banded cucumber beetle (Diabrotica balteata). After 7 days efficacy in % is determined. 100% means all the seedlings have grown up like in the untreated, uninfected control; 0% means none of the seedlings have grown.

Ctenocephalides felis = Ctenocephalides felis oral test; details: 48 h, 100 ppm in cattle blood, after 2 days, adult unfed cat fleas
Experimental: Ctenocephalides Felis—Oral Test
Solvent: dimethyl sulfoxide
To produce a suitable preparation of active compound, 10 mg of active compound are dissolved in 0.5 ml solvent, and the concentrate is diluted with cattle blood to the desired concentration.
Approximately 20 adult unfed cat fleas (Ctenocephalides felis) are placed in flea chambers. The blood chamber, sealed with parafilm on the bottom, are filled with cattle blood supplied with compound solution and placed on the gauze covered top of the flea chamber, so that the fleas are able to suck the blood. The blood chamber is heated to 37° C. whereas the flea chamber is kept at room temperature.
After 2 days mortality in % is determined. 100% means all the fleas have been killed; 0% means none of the fleas have been killed.

Nezara viridula = Nezara viridula spray test; details: 96 h, 500 g/ha, after 4 days, larvae on barley plants
Experimental: Nezara viridula—Spray Test
as §1, with “solvent,” for “solvents”, “and the concentrate” for “and”
Barley plants (Hordeum vulgare) infested with larvae of the southern green stink bug (Nezara viridula) are sprayed with a test solution containing the desired concentration of the active ingredient.
After 4 days mortality in % is determined. 100% means all the stink bugs have been killed: 0% means none of the stink bugs have been killed.

| Compound | pest or weed control at 0.02 mg (Boophilus microplus) | mortality at 100 g/ha (Spodoptera frugiperda) | mortality at 500 g/ha (Spodoptera frugiperda) | pest or weed control at 80 µg/disc, 250 g/ha (Diabrotica balteata) | pest or weed control at 160 µg/disc, 500 g/ha (Diabrotica balteata) | mortality at 100 ppm (Ctenocephalides felis) | mortality at 500 g/ha (Nezara viridula) |
| --- | --- | --- | --- | --- | --- | --- | --- |
| C[C@H](NC(=O)c1cc(Cl)cc(C(F)(F)F)c1)c1ncnn1-c1cccc(S(C)(=O)=O)n1 [Example I-064] | 80% |  |  |  |  |  |  |
| CC[C@H](NC(=O)c1cc(C(F)(F)F)cc(C(F)(F)F)c1)c1ncnn1-c1ccc(C#N)cn1 [Example I-068] | 100% | 100% | 100% | 100% | 100% |  |  |
| CC(NC(=O)c1cc(Cl)cc(C(F)(F)F)c1)c1ncnn1C1=NCCS1 (centres unmarked) [Example I-075] |  |  |  | 100% | 100% | 100% |  |
| C[C@H](NC(=O)c1cc(Cl)cc(C(F)(F)F)c1)c1ncnn1-c1nc(C(F)(F)F)cs1 [Example I-084] |  |  |  | 100% | 100% |  |  |
| C[C@H](NC(=O)c1cc(Cl)cc(C(F)(F)F)c1)c1ncnn1-c1ccc(-n2ccnc2)cn1 [Example I-086] |  |  | 83% | 100% |  | 100% |  |
| C[C@H](NC(=O)c1cc(Cl)cc(C(F)(F)F)c1)c1ncnn1-c1ccc(-n2cncn2)cn1 [Example I-087] |  | 100% | 100% |  |  |  |  |
| C[C@H](NC(=O)c1cc(Cl)cc(C(F)(F)F)c1)c1ncnn1-c1ncc(Cl)s1 [Example I-090] |  | 100% | 100% | 100% | 100% | 100% | 100% |
| COc1cc(C(=O)N[C@@H](C)c2ncnn2-c2ccc(C#N)cn2)cc(C(F)(F)F)c1 [Example I-092] |  | 100% | 100% | 100% | 100% | 100% | 90% |
| COc1cc(C(=O)N[C@@H](C)c2ncnn2-c2nccs2)cc(C(F)(F)F)c1 [Example I-093] |  |  | 100% | 100% | 100% | 100% | 100% |
| CC[C@H](NC(=O)c1cc(Cl)cc(OC(F)(F)F)c1)c1ncnn1-c1ccc(NC(C)=O)cn1 [Example I-095] |  |  |  |  |  | 100% |  |
| CC[C@H](NC(=O)c1cc(Cl)cc(OC(F)(F)F)c1)c1ncnn1-c1ccc(NC(=O)C2CC2)cn1 [Example I-096] |  |  |  | 100% | 100% | 100% |  |
| C[C@H](NC(=O)c1cc(Cl)cc(C(F)(F)F)c1)c1ncnn1-c1ccc(NC(=S)CC2CC2)cn1 [Example I-097] |  |  | 100% | 100% | 100% | 100% |  |
| CC(C)C(=S)Nc1ccc(-n2ncnc2[C@H](C)NC(=O)c2cc(Cl)cc(C(F)(F)F)c2)nc1 [Example I-099] |  |  | 100% | 100% | 100% | 100% |  |
| COc1cc(C(=O)N[C@@H](C)c2ncnn2-c2ncc(F)cc2F)cc(C(F)(F)F)c1 [Example I-102] |  |  |  | 100% |  |  | 100% |
| C[C@H](NC(=O)c1cc(Cl)cc(Cl)c1)c1ncnn1-c1nccs1 [Example I-108] |  |  | 83% |  | 100% |  |  |
| C[C@H](NC(=O)c1cc(Cl)cc(OC(F)(F)F)c1)c1ncnn1-c1ccc(NC(=O)C2(Cl)CC2)cn1 [Example I-113] |  | 80% | 100% |  | 80% |  | 100% |

— patent publication US12171229B2, “Heteroaryl-triazole and heteroaryl-tetrazole compounds as pesticides” (BAYER AKTIENGESELLSCHAFT, priority 2018, dated 2024)
